Measurements from patent US4935438A, “Dopamine-β-hydroxylase inhibitors” (SmithKline Beckman Corporation, priority 1987, dated 1990).

How the values were obtained:
[1] = target: T1, DBH (Homo sapiens, UniProt P09172); details: cited from earlier work; for DBH inhibition: literature report; for mode of DBH inhibition: literature
T1 sequence (P09172 1-617): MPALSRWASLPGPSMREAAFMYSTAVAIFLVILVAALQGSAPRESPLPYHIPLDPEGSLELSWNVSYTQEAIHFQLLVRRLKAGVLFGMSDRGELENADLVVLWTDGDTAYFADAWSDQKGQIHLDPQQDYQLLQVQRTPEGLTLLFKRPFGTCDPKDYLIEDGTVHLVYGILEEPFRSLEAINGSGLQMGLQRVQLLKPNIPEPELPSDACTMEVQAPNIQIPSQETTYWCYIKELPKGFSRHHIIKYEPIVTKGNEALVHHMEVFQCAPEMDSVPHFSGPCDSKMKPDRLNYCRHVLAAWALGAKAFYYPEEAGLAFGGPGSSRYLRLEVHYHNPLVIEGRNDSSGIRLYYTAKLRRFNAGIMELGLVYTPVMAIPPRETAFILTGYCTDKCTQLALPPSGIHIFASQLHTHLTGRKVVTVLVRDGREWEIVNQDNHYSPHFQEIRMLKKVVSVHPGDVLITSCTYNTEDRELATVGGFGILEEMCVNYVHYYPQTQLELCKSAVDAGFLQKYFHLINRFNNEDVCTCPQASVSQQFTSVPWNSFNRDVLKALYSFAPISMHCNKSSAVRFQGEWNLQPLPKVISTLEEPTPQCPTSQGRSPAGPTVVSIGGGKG

[2] = test system: Spontaneously hypertensive rats; test: mean arterial blood pressure in spontaneously hypertensive rats; format: in vivo, rat; details: 50 mg/kg intraperitoneally, vs vehicle treated controls
Description: Spontaneously hypertensive rats were treated with 2-(carboxymethylthio)-1-(3,5-difluorobenzyl)imidazole at a dose of 50 mg/kg intraperitoneally, and mean arterial blood pressure was monitored for four hours using an indwelling cannula in the femoral artery. […] The maximal blood pressure reduction was approximately 43 mmHg.

O=C(O)c1ccc(CCCCCl)cn1 [5-(4-chlorobutyl) picolinic acid]
DBH inhibition [1]: inhibit DBH

NOCc1ccccc1 [Benzyloxyamine]
mode of DBH inhibition [1]: apparently act as competitive inhibitors

O=C(O)c1ccc(CCC(Br)CBr)cn1 (stereo not drawn) [5-(3,4-dibromobutyl)picolinic acid]
DBH inhibition [1]: DBH inhibitors

O=C(O)CSc1nccn1Cc1cc(F)cc(F)c1 [2-(Carboxymethylthio)-1-(3,5-difluorobenzyl)imidazole]
maximal blood pressure reduction ([2]; monitored for four hours): approximately 43 mmHg
time blood pressure remained significantly reduced ([2]; monitored for four hours): 4 h
time to significant blood pressure reductions following treatment [2]: ≤ 30 min

NNCc1ccccc1 [benzylhydrazine]
mode of DBH inhibition [1]: apparently act as competitive inhibitors

CN(C)C(=S)SCc1ccc(C(=O)O)nc1 [5-(dimethyldithiocarbamoylmethyl)picolinic acid]
DBH inhibition [1]: DBH inhibitors

CCCCc1ccc(C(N)=O)nc1 [Bupicomide, 5(n-butyl)picolinamine]
DBH inhibition [1]: DBH inhibitor
